Data set [1] addresses T1, BRD4(BD1) (Homo sapiens, UniProt O60885).
T1 construct: In a 384-well ProxiPlate BRD4(BD1) (2 nM final) was combined with peptide; made in house
The data set is described as follows: In vitro enzyme inhibition assay (AlphaScreen, BRD4 / H4-tetraacetyl peptide). The class given is binding. Particulars: BRD4(BD1) 2 nM, peptide 15 nM. Here is the method:
His-tagged BRD4 was cloned, expressed, and purified to homogeneity. […] BRD4 binding and inhibition was assessed by monitoring the interaction of biotinylated H4-tetraacetyl peptide (AnaSpec, H4K5/8/12/16(Ac), biotin-labeled) with the target using the AlphaScreen technology ([…]). […] After 20 min incubation at RT, Alpha streptavidin donor beads and Nickel Chelate acceptor beads were added to a final concentration of 5 μg/mL.

Data set [2] concerns Raji, human Burkitts lymphoma cells. Briefly: Cell-MTS cellular proliferation assay, Raji. The class given is cell-based. To be noted: 168 hr incubation. Here is the method:
(§1) A colorimetric cellular proliferation assay (Cell-MTS assay) was performed to assess the ability of the heterocyclic derivative BRD4 inhibitors disclosed herein to effect the proliferation of established cancer cell lines.
(§2) Assay Principle: The Cell-MTS assay is a 7-day plate-based colorimetric assay that quantifies the amount of newly generated NADH in the presence or absence of test compound. The NADH level is used for the quantification of cancer cell proliferation.
(§3) Assay Method: Established cancer cell lines with a variety of driving mutations were obtained from American Type Culture Collection (ATCC) and routinely passaged according to ATCC protocols. For routine assay, these cells were seeded at densities that enabled ˜90% confluence after 7 days of culture. Raji, human Burkitts lymphoma cells, (cMYC) were seeded at 15,000 cells per 96-well. HL-60, human proleukemia cells, (NRAS, p16, p53, c-Myc amplified) were seeded at 5,000 cells per 96-well. NCI-H460, human non-small cell lung cancer cells, (KRAS, PIK3CA, STLK11, p16) were seeded at 3,000 cells per 96-well. Plated cells were incubated for 24 hr, and thereafter cells received an 11-point dilution of Compound 1 with final concentration ranges from 100 μM to 2.0 nM. […] IC50 values were calculated using the IDBS XLfit software package and include background subtracted OD490 values and normalization to DMSO controls. […]

The test system of data set [3] is HL-60, human proleukemia cells. Briefly: Cell-MTS cellular proliferation assay, HL-60. The class given is cell-based. Particulars: 168 hr incubation. Here is the method: as §1, §2, §3
(Tetrazolium assays rely on reduction of a dye to a coloured formazan, in cell work by metabolically active cells.)

Data set [4] relates to NCI-H460, human non-small cell lung cancer cells. Briefly: Cell-MTS cellular proliferation assay, NCI-H460. The class given is cell-based. Particulars: 168 hr incubation. Here is the method:
as §1, §2, §3

Data set [5] can be described thus: PK study of plasma exposure in mouse 6 hours after oral SDD preparations. To be noted: female, CD-1, mouse. The class given is in vivo, female CD-1 mice. The procedure:
Spray-dried dispersions (SDD) were prepared by mixing a solution of Compound 1 in dichloromethane with either polyvinylpyrrolidone (PVP K12 PF) or hydroxypropyl methylcellulose (Methocel E5 LV) in ratios of Compound 1:polymer of either 1:1 or 1:3, resulting in four unique combinations, followed by spray-drying each preparation using a lab scale Buchi spray dryer (Buchi B290 parameters: inlet T° 80° C.; outlet T° 57° C.; aspirator 100%; nozzle air 30 mm; pump speed 25%; setup: open loop).
In order to determine the plasma exposure levels of the four SDDs prepared as described above, each of preparation was administered orally to female CD-1 mice as a suspension in 0.5% MC. FIG. 6 illustrates the results of this experiment.

Data set [6] is described as follows: PK study of dose proportionality in rat after oral SDD. The class given is in vivo, female Sprague Dawley rats. Particulars: 25% Compound 1:HPMC SDD, oral 0.5% MC suspension, 10 mg/kg to 300 mg/kg. The procedure:
(§4) The spray-dried dispersion was prepared by mixing a solution of Compound 1 in dichloromethane with hydroxypropyl methylcellulose (Methocel E5 LV) (HPMC) in a 1:3 Compound 1:polymer ratio, stirring the mixture overnight, and then spray-drying using a lab scale Buchi spray dryer.

Data set [7] in a line: PK study of dose proportionality in dog after oral SDD. Particulars: 25% Compound 1:HPMC SDD, oral 0.5% MC suspension, 1 mg/kg-10 mg/kg. The class given is in vivo, male beagle dogs. Here is the method: as §4
Data set [8] is described as follows: PK study of plasma exposure in rat after oral HPMCAS SDD preparations. The class given is in vivo, female Sprague Dawley rats. To be noted: female, Sprague Dawley, 10 mg/kg. Here is the method: Spray-dried dispersions (SDD) were prepared by mixing a solution of Compound 1 in (90:10) acetone:water with hydroxypropylmethylcellulose acetate succinate M or H (HPMCAS-M or HPMCAS-H) in ratios of Compound 1:polymer of either 1:9 or 1:3, followed by spray-drying each preparation using a custom bench scale Lab Spray Dryer (BLD-35; process parameters: inlet T° 93-109° C.; outlet T° 42-43° C.; atomizing pressure 110 psi; feed rate 29 g/min; […] 450 g/min).
In order to determine the plasma exposure levels of the three SDDs prepared as described above, each of them was administered orally at 10 mg/kg (based on Compound 1) to female Sprague Dawley rats as a suspension in 0.5% MC for the 10% HPMCAS-M SDD or as a suspension in 0.5% Methocel A4M/0.5% HPMCAS-HF/20 mM Tris, pH 7.4 for the 25% HPMCAS-M and the 25% HPMCAS-H SDDs. FIG. 9 illustrates the results of this experiment.

A short description of data set [9]: Aqueous solubility, kinetic shake flask method. The class given is physicochemical. Particulars: aqueous buffer, kinetic from dmso stock, pH=7.4 in 50 mM phosphate buffer.
Data set [10] is described as follows: PK study of dose proportionality in rat after oral crystalline Form A. The class given is in vivo, female Sprague Dawley rats. Particulars: oral 10, 30, 100 or 300 mg/kg, suspension in 1% Tween, 40% PEG400, 59% of 0.5% HPMC. From the text: A summary of this study is illustrated in FIG. 5.

Values after ≈ are worked out from the molar mass of the structure shown.

On to `Cn1cc(-c2cc(S(C)(=O)=O)ccc2OCC2CC2)c2ccccc2c1=O` [Compound 1, 4-[2-(cyclopropylmethoxy)-5-methylsulfonylphenyl]-2-methylisoquinolin-1-one], for which the IC50 – broadly, the concentration that gives 50% inhibition – in data set [1] was less than 500 nM; in data set [2], not above 500 nM; in data set [3], not above 500 nM; in data set [4], more than 5000 nM. For the same molecule, the AUC(0-t) was 10500 ng·h/mL in data set [5] (SDD with HPMC polymer, Compound 1:polymer 1:1, suspension in 0.5% MC); 24400 ng·h/mL in data set [5] (SDD with HPMC polymer, Compound 1:polymer 1:3, suspension in 0.5% MC); 7190 ng·h/mL in data set [5] (SDD with PVP polymer, Compound 1:polymer 1:1, suspension in 0.5% MC); 8870 ng·h/mL in data set [5] (SDD with PVP polymer, Compound 1:polymer 1:3, suspension in 0.5% MC); 28100 ng·h/mL in data set [8] (SDD with HPMCAS-M polymer, Compound 1:polymer 1:9, suspension in 0.5% MC, read-out: mean AUC 0-24 hr); 27500 ng·h/mL in [8] (pH 7.4, SDD with HPMCAS-H polymer, Compound 1:polymer 1:3, suspension in 0.5% Methocel A4M/0.5% HPMCAS-HF/20 mM Tris, pH 7.4, read-out: mean AUC 0-24 hr). In addition, the AUC(0-t) in [8] (pH 7.4, SDD with HPMCAS-M polymer, Compound 1:polymer 1:3, suspension in 0.5% Methocel A4M/0.5% HPMCAS-HF/20 mM Tris, pH 7.4, read-out: mean AUC 0-24 hr) was determined as 24600 ng·h/mL. Further, the “dose proportionality (AUC 0-24 hr)” value is “approximate dose proportionality” in data set [6] and “Approximate dose proportionality” in data set [7].

As to `Cn1cc(-c2cc(S(C)(=O)=O)ccc2OCC2CC2)c2ccccc2c1=O` [Compound 1 Form A, 4-[2-(cyclopropylmethoxy)-5-methylsulfonylphenyl]-2-methylisoquinolin-1-one], in data set [9], the solubility (in general, the concentration that dissolves in the medium under given conditions) was in the range of 2.6 to 3.7 µg/mL (≈ 6.78 to 9.65 µM). In data set [10], the “exposure levels (AUC 0-24 hr) versus dose” value is “non-linear exposure levels”.

The values are drawn from patent US11679106B2, “Bromodomain inhibitor” (CELGENE QUANTICEL RESEARCH, INC., priority 2015, dated 2023).
